Data published in patent publication US6846921B2, “Chimeric antisense oligonucleotides and cell transfecting formulations thereof” (Chiron Corporation, priority 1999, dated 2005).
{5'-OMe-dT} = O-methyl thymidine blocking nucleotide (W), phosphodiester-linked; {3'-3'N} = to-3' linked nucleotide blocking group (Z), phosphodiester-linked; d = 2'-deoxy (DNA); m = 2'-O-methyl

Tests used:
AKT1 mRNA [1] = assay: AKT1 mRNA knockout after transfection of chimeric antisense oligonucleotide; format: cell-based, human; details: HT1080 cells
Protocol: (§1) With the exception of the mTyr oligo (SEQ ID NO: 17-18), which was transfected into B16 melanoma cells, all oligos shown in Table 1 were transfected into HT1080 cells, using “Lipitoid 1” (see below) for transfection, and incubated for 24 hours. The table gives the approximate level of mRNA knockout observed in each case.
The same oligos were also delivered by commercial lipids (Effectene™) and peptoids ((NaeNmpeNmpe)3).
(§2) For each transfection mixture, a carrier molecule, preferably a lipitoid or cholesteroid, was prepared to a working concentration of 0.5 mM in water, sonicated to yield a uniform solution, and filtered through a 0.45 μm PVDF membrane. […]
(§3) The level of target mRNA was quantitated using the Roche LightCycler™ real-time PCR machine. […]
(§4) An amplification mixture was prepared by mixing in the following order: 1×PCR buffer II, 3 mM MgCl2, 140 μM each dNTP, 0.175 pmol each oligo, 1:50,000 dil of SYBR® Green, 0.25 mg/ml BSA, 1 unit Taq polymerase, and H2O to 20 μl. (PCR buffer II is available in 10×concentration from Perkin-Elmer (Norwalk, Conn.). In 1×concentration it contains 10 mM Tris pH 8.3 and 50 mM KCl. SYBR® Green (Molecular Probes, Eugene, Oreg.) is a dye which fluoresces when bound to double stranded DNA. As double stranded PCR product is produced during amplification, the fluorescence from SYBR® Green increases.) […]

CK1E mRNA = CK1E mRNA knockout after transfection of chimeric antisense oligonucleotide; format: cell-based, human; details: HT1080 cells, Lipitoid 1 for transfection, incubated 24 hours, approximate level
Protocol: as §1
as §2, with “membrane. The antisense oligonucleotide was prepared to a working concentration of 100 μM in sterile Millipore water.” for “membrane.”
as §3, §4

[2] = system: human fibrosarcoma (HT1080) cells; assay: Delivery of FITC-labeled chimeric oligonucleotides, fluorescence analysis; format: cell-based
From the text: One method of delivery involves the use of transfection agents known as “lipitoids” and “cholesteroids”, described, for example, in co-owned PCT publications WO 98/06437 and WO 99/08711 (Zuckermann et al.), based on U.S. Ser. Nos. 60/023,867, 60/054,743, and 09/132,808, which are hereby incorporated by reference. These lipid-cationic peptoid conjugates are shown in these references to be effective reagents for the delivery of plasmid DNA to cells in vitro. It is shown herein that such compounds efficiently deliver oligonucleotides into a variety of primary and tumor cell lines. The efficiency of delivery was assessed by fluorescence analysis of FITC-labeled oligonucleotides, or by monitoring mRNA levels after transfection of chimeric antisense oligonucleotides, as described further below.
The extent of delivery of FITC-labeled chimeric oligonucleotides into human fibrosarcoma (HT1080) cells was assessed via fluorescence analysis. (All oligonucleotides used in the subsequent studies were chimeric oligonucleotides as described for the studies represented in Table 1.) The sequence of the oligonucleotides was the reverse control of PDK1 (SEQ ID NO: 25, the reverse of SEQ ID NO: 23) so that the effect of the oligonucleotides on the cells would be minimal. The oligonucleotides were transfected via complexation with (a) a commercially available transfection agent, Effectene™, (b) the peptoid (NaeNmpeNmpe)3 (peptoid 1), (c) Lipitoid 1, in a 1:4 charge ratio of oligo to lipitoid, and (d) Lipitoid 1, in a 1:3 charge ratio.

AKT1 mRNA [3] = assay: AKT1 mRNA knockout in colon cancer cell line (Lovo) with different carriers; format: cell-based; details: Lovo cells; delivery of chimeric anti-AKT1 oligo
Protocol: (§5) For each transfection mixture, a carrier molecule, preferably a lipitoid or cholesteroid, was prepared to a working concentration of 0.5 mM in water, sonicated to yield a uniform solution, and filtered through a 0.45 μm PVDF membrane. The antisense oligonucleotide was prepared to a working concentration of 100 μM in sterile Millipore water.
The oligonucleotide was diluted in OptiMEM™ (Gibco/BRL), in a microfuge tube, to 2 μM, or approximately 20 μg oligo/ml of OptiMEM™. In a separate microfuge tube, lipitoid or cholesteroid, typically in the amount of about 1.5-2 nmol lipitoid/μg antisense oligonucleotide, was diluted into the same volume of OptiMEMTm used to dilute the oligonucleotide. The diluted antisense oligonucleotide was immediately added to the diluted lipitoid and mixed by pipetting up and down.
Cells were plated on tissue culture dishes one day in advance of transfection, in growth media with serum, to yield a density at transfection of 60-90%. The oligonucleotide/lipitoid mixture was added to the cells, immediately after mixing, to a final concentration of 100-300 nM antisense oligonucleotide. Cells were incubated with the transfection mixture at 37° C., 5% CO2 for 4-24 hours. After incubation, the transfection mixture was removed and replaced with normal growth media with serum.
as §3

KRAS mRNA = KRAS mRNA knockout after transfection of chimeric antisense oligonucleotide; format: cell-based, human; details: HT1080 cells, Lipitoid 1 for transfection, incubated 24 hours, approximate level
Protocol: as §1
as §5, with “water. […]” for “water.”
as §3, §4

CHK1 mRNA = CHK1 mRNA knockout after transfection of chimeric antisense oligonucleotide; format: cell-based, human
Protocol: Antisense chimeric oligonucleotides based on the formula above, having sequences directed against AKT1 (SEQ ID NO: 1) or AKT2 (SEQ ID NO: 2), were prepared as described in Example 1. The oligonucleotides also included a 5′-terminal 5′-O-methyl thymidine, as indicated by the formula above. In these oligonucleotides, X^1 and X^2 were seven-base blocks of 2′-O-methyl PO RNA, Y is PS DNA, Z was a 3′-to-3′ linked nucleotide, and W was a 5′-O-methyl thymidine. Both Z and W were linked to the respective X blocks via phosphodiester linkages. […] FIGS. 5 and 6 show levels of endogenous AKT1 mRNA in colon cancer cells and HT1080 cells, respectively, transfected with anti-AKT1 chimeric oligonucleotides (SEQ ID NO: 1). […]
as §3, §4

chk1 kinase = chk1 kinase activity after antisense transfection; format: cell-based, human; details: hCHK1 antisense, transfected cells
[4] = system: G2 cell cycle checkpoint control; assay: chk1 function (G2 cell cycle checkpoint control) after antisense transfection; format: cell-based, human; details: hCHK1 antisense, transfected cells
ILK mRNA = ILK mRNA knockout after transfection of chimeric antisense oligonucleotide; format: cell-based, human; details: HT1080 cells, Lipitoid 1 for transfection, incubated 24 hours, approximate level
Protocol: as §1
as §5, with “water. […]” for “water.”
as §3, §4

IGFR1 mRNA = IGFR1 mRNA knockout after transfection of chimeric antisense oligonucleotide; format: cell-based, human; details: HT1080 cells, Lipitoid 1 for transfection, incubated 24 hours, approximate level
Protocol: as §1
as §5, with “water. […]” for “water.”
as §3, §4

E1AF mRNA = E1AF mRNA knockout after transfection of chimeric antisense oligonucleotide; format: cell-based, human; details: HT1080 cells, Lipitoid 1 for transfection, incubated 24 hours, approximate level
Protocol: as §1
as §5, with “water. […]” for “water.”
as §3, §4

Lovo colon cancer cells = assay: 4 day cell proliferation assay after transfection, Lovo; format: cell-based; details: 4 day assay, 50-300 nM reverse control PDK1 oligo, compared with Lipitoids 1 and 2
Protocol: (§6) (Again, reverse control PDK1 chimeric oligonucleotides, expected to be non-active, were used.). […] This effect is not limited to this cell type, and was also observed in proliferation assays of Km12L4 colon cancer cells (FIG. 6) and Colo320DM colon cancer cells (FIG. 7).
(§7) Cells were seeded into 96 well plates at a density of 5000 cells per well. For a 4 day proliferation assay, 5 independent 96 well plates were prepared, one for each day. After overnight incubation, cells were transfected using the procedure described above. On each day of the proliferation assay, all medium was removed from one plate and frozen at −70° C. On day four, all plates were developed with the Quantos™ assay kit (Stratagene, La Jolla, Calif.) which determines the amount of DNA, and thus the number of cells, in each well.

[5] = system: Colo320DM colon cancer cells; assay: Cell proliferation assay after transfection, Colo320DM; format: cell-based; details: compared with Lipitoids 1 and 2
Protocol: as §6, §7

[6] = oligo SEQ ID NO: 25, in comparison to Effectene

Substance: 1 (CCATAGTGAGGTTGCATCTGGTGCC; antisense; sugars from the 5' end m7 d11 m7, 5' {5'-OMe-dT}, 3' {3'-3'N}, backbone and T or U not given here; 2'-OMe blocks are phosphodiester, DNA gap is phosphorothioate) [compound 1]
- mRNA knockout (AKT1 mRNA [1]; AKT1, Lipitoid 1 for transfection, incubated 24 hours, approximate level): >90%

Substance: 6 (AGCGGCAGAAGTTGAGGTATGTTGA; antisense; sugars from the 5' end m7 d11 m7, 5' {5'-OMe-dT}, 3' {3'-3'N}, backbone and T or U not given here; 2'-OMe blocks are phosphodiester, DNA gap is phosphorothioate) [compound 6]
- mRNA knockout (CK1E mRNA): >80%

Substance: DMPE(NaeNmpeNmpe)3 [Lipitoid 1]
- delivery effectiveness by charge ratio ([2]; 1:4 charge ratio of oligo to lipitoid versus 1:3): more effective than the 1:3 ratio
- nuclear delivery of the oligonucleotide [2, 6]: higher degree of nuclear delivery
- transfection efficiency of FITC-labeled oligonucleotide [2, 6]: significantly higher transfection efficiency

Substance: Chol-β-ala-(NaeNmpeNmpe)3 [Cholesteroid 1]
- AKT1 mRNA knockout by carrier (FIG. 4) (AKT1 mRNA [3]): better AKT1 mRNA knockout than delivery by Lipitoid 1 or Lipitoid 2

Substance: 12 (GCATGTGGAAGGTAGGGAGGCAAGA; antisense; sugars from the 5' end m7 d11 m7, 5' {5'-OMe-dT}, 3' {3'-3'N}, backbone and T or U not given here; 2'-OMe blocks are phosphodiester, DNA gap is phosphorothioate) [compound 12]
- mRNA knockout (KRAS mRNA): >85%

Substance: 3 (CCCAGAGCCGATGGTCCGATCATGT; antisense; sugars from the 5' end m7 d11 m7, 5' {5'-OMe-dT}, 3' {3'-3'N}, backbone and T or U not given here; 2'-OMe blocks are phosphodiester, DNA gap is phosphorothioate) [compound 3]
- mRNA knockout (CHK1 mRNA; CHK1, HT1080 cells, Lipitoid 1 for transfection, incubated 24 hours, approximate level): >90%

Substance: CCATAGTGAGGTTGCATCTGGTGCC (chimeric modifications, further chemistry not given here) [SEQ ID NO: 1, chimeric antisense oligonucleotide directed against AKT1]
- reduction in endogenous AKT1 mRNA level (FIG. 3) (AKT1 mRNA [1]; L1-transfected, versus control oligos and delivery by Effectene or peptoid (NaeNmpeNmpe)3): most pronounced reduction

Substance: CCCAGAGCCGATGGTCCGATCATGT (sugars from the 5' end m7 d11 m7, 5' {5'-OMe-dT}, 3' {3'-3'N}, backbone and T or U not given here; 2'-OMe blocks are phosphodiester, DNA gap is phosphorothioate) [SEQ ID NO: 3, chimeric antisense oligonucleotide directed against hCHK1]
- chk1 kinase activity (chk1 kinase): loss of chk1 kinase activity
- degradation of endogenous mRNA (CHK1 mRNA; hCHK1 antisense, transfected cells): degradation of endogenous mRNA
- chk1 function (G2 cell cycle checkpoint control) [4]: loss of chk1 function

Substance: 11 (GTGTTTGTTCAGGGTTCCATTTCGG; antisense; sugars from the 5' end m7 d11 m7, 5' {5'-OMe-dT}, 3' {3'-3'N}, backbone and T or U not given here; 2'-OMe blocks are phosphodiester, DNA gap is phosphorothioate) [compound 11]
- mRNA knockout (ILK mRNA): >90%

Substance: 9 (TCTTCCTCACAGACCTTCGGGCAAG; antisense; sugars from the 5' end m7 d11 m7, 5' {5'-OMe-dT}, 3' {3'-3'N}, backbone and T or U not given here; 2'-OMe blocks are phosphodiester, DNA gap is phosphorothioate) [compound 9]
- mRNA knockout (IGFR1 mRNA): > 80%

Substance: 7 (CCTGCCAGTATGAAGTTGGGAAGCG; antisense; sugars from the 5' end m7 d11 m7, 5' {5'-OMe-dT}, 3' {3'-3'N}, backbone and T or U not given here; 2'-OMe blocks are phosphodiester, DNA gap is phosphorothioate) [compound 7]
- mRNA knockout (E1AF mRNA): >90%

Substance: Chol-β-ala-(NaeNiaNia)3 [Cholesteroid 3]
- proliferation and viability following oligonucleotide transfection (FIG. 5) (Lovo colon cancer cells): significant increase in proliferation and viability
- proliferation following oligonucleotide transfection (FIG. 7) [5]: also observed

Substance: Chol-Ahx-(NaeNmpeNmpe)3 [Cholesteroid 2]
- proliferation and viability following oligonucleotide transfection (FIG. 5) (Lovo colon cancer cells): significant increase in proliferation and viability
- proliferation following oligonucleotide transfection (FIG. 7) [5]: also observed
